Each block holds one molecule with its values, some of them ahead of it.
What was measured:
HCT-116 = test: Cytotoxicity against human HCT-116 cells assessed as inhibition of cell proliferation incubated for 72 hrs by MTT assay; format: functional, cell-based; conditions: HCT-116, 72 h
A549 [1] = test: Cytotoxicity against human A549 cells assessed as inhibition of cell proliferation incubated for 72 hrs by MTT assay; format: functional, cell-based; conditions: A549, 72 h
Histone deacetylase 2 [2] = target: T1, Histone deacetylase 2 (Homo sapiens, UniProt Q92769); test: Inhibition of recombinant human HDAC2 expressed in baculovirus infected Hi-5 insect cells using Ac-Lys-Tyr-Lys (epsilon-acetyl)-AMC as substrate incubated for 3 to 24 hrs by fluorescence based plate reader analysis
T1 sequence (Q92769 whole entry): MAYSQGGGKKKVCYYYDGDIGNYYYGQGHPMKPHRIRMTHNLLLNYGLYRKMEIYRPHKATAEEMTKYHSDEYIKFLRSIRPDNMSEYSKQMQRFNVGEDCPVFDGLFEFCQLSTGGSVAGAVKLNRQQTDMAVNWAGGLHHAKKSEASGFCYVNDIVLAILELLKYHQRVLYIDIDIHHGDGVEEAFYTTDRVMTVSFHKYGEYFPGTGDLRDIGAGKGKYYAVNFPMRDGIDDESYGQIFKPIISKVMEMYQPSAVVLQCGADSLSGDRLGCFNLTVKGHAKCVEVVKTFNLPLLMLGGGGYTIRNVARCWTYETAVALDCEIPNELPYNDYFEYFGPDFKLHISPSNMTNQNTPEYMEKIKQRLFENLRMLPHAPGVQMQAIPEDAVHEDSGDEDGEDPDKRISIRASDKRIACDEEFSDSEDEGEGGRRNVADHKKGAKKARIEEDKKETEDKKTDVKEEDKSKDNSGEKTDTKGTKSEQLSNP

Histone deacetylase 3 [3] = target: T2, Histone deacetylase 3 (Homo sapiens, UniProt O15379); test: Inhibition of recombinant human HDAC3 expressed in baculovirus infected Hi-5 insect cells using Ac-Lys-Tyr-Lys (epsilon-acetyl)-AMC as substrate incubated for 3 to 24 hrs by fluorescence based plate reader analysis
T2 sequence (O15379 whole entry): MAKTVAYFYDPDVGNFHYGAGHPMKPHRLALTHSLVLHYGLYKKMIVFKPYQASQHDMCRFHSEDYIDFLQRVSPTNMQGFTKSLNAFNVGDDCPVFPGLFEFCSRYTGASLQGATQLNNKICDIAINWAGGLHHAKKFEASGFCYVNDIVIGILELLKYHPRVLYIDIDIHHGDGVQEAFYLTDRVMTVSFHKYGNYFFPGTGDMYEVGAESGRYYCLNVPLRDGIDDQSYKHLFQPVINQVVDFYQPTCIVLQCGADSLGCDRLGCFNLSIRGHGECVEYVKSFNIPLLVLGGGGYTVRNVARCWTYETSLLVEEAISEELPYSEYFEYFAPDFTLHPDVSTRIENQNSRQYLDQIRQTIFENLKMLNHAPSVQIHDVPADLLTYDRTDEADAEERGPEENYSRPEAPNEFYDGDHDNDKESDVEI

Histone deacetylase 1 [4] = target: T3, Histone deacetylase 1 (Homo sapiens, UniProt Q13547); test: Inhibition of recombinant human HDAC1 expressed in baculovirus infected Hi-5 insect cells using Ac-Lys-Tyr-Lys (epsilon-acetyl)-AMC as substrate incubated for 3 to 24 hrs by fluorescence based plate reader analysis
T3 sequence (Q13547 whole entry): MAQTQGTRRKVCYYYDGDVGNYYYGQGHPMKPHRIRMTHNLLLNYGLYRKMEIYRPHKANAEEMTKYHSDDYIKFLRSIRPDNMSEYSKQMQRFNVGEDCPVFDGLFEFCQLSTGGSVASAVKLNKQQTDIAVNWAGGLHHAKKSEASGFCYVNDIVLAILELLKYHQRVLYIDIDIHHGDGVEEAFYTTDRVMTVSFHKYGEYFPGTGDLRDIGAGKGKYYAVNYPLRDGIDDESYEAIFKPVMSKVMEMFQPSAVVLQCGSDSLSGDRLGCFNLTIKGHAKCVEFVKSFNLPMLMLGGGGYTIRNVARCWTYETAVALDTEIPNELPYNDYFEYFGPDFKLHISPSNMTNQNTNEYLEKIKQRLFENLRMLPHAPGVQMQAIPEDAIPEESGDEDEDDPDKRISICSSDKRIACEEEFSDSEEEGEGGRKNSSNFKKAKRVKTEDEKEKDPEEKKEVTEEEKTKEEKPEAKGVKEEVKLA

A549 [5] = test: Antiinvasive activity against human A549 cells assessed as reduction in cell invasion incubated for 24 hrs by microplate reader analysis relative to control; format: functional; parameters: scale not given: the % may be the effect or the level left
[6] = target: 72 kDa type IV collagenase (Homo sapiens, UniProt P08253); test: Inhibition of MMP2 (unknown origin) using chromogenic substrate incubated for 1 hr followed by substrate addition measured for 30 mins by microplate photometry
72 kDa type IV collagenase, sequence (P08253 whole entry): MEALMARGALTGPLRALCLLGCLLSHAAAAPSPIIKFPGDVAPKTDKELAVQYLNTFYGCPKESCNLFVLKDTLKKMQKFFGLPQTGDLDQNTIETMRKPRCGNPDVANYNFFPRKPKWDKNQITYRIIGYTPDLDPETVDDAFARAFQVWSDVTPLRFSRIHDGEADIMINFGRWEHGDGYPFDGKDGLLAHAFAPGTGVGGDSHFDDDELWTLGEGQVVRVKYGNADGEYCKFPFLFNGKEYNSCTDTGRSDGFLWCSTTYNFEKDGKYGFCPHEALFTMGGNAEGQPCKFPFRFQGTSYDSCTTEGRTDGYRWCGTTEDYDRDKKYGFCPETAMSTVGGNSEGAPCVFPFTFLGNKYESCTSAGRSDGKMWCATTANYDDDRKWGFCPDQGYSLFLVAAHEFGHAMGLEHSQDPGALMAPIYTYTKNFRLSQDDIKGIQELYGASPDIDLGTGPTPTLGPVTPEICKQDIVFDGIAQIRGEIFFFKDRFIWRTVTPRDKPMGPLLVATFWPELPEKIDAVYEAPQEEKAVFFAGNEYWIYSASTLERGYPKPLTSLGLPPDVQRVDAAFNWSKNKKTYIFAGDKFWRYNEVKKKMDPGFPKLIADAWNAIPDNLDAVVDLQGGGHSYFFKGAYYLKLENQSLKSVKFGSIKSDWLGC

Histone deacetylase 8 = target: T4, Histone deacetylase 8 (Homo sapiens, UniProt Q9BY41); test: Inhibition of recombinant human HDAC8 using Fluor-de-lys substrate by fluorescence based microplate reader analysis
T4 sequence (Q9BY41 whole entry): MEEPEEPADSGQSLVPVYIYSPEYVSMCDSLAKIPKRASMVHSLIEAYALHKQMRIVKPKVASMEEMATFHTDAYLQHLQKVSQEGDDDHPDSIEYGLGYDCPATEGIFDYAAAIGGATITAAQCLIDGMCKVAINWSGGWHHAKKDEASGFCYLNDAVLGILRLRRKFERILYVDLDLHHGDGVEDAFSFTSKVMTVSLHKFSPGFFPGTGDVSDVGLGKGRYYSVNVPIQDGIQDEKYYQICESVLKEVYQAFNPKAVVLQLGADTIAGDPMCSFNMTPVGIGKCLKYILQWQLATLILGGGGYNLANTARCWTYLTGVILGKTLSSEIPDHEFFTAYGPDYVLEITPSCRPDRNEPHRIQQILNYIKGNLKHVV

[7] = target: T5, Protein deacetylase HDAC6 (Homo sapiens, UniProt Q9UBN7); test: Inhibition of HDAC6 (unknown origin)
T5 sequence (Q9UBN7 whole entry): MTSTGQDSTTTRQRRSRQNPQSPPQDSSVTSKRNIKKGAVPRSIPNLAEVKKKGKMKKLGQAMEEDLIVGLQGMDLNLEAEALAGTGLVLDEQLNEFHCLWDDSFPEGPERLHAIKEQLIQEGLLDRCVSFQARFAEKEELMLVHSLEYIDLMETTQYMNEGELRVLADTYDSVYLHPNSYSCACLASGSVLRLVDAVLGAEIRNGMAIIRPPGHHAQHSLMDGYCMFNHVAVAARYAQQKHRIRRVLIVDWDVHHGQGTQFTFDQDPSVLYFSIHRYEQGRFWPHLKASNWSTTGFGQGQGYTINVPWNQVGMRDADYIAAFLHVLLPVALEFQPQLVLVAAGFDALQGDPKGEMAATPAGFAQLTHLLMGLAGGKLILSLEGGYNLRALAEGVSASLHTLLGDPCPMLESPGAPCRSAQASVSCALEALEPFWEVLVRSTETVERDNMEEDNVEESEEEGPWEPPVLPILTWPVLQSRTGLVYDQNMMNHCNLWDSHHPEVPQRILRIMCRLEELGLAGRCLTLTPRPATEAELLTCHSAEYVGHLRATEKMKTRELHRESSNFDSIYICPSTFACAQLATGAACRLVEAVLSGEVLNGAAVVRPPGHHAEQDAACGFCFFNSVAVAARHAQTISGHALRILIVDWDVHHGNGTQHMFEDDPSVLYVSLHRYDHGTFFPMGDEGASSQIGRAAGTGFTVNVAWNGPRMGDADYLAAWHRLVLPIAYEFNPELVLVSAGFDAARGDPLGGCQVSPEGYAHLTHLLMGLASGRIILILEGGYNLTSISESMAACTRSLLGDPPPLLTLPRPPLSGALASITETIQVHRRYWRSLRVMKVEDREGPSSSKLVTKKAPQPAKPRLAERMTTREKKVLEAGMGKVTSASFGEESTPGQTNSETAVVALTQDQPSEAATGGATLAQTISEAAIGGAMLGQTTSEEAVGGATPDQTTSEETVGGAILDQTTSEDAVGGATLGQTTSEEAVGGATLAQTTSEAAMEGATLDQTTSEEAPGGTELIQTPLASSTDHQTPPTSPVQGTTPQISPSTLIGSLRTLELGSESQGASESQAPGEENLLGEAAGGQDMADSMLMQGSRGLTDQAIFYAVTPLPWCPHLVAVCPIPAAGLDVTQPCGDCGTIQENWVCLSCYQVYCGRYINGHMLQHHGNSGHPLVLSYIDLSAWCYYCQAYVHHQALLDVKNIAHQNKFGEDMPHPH

[8] = target: Phosphatidylinositol 4,5-bisphosphate 3-kinase catalytic subunit alpha isoform (Homo sapiens, UniProt P42336); test: Inhibition of PI3K-alpha (unknown origin)
Phosphatidylinositol 4,5-bisphosphate 3-kinase catalytic subunit alpha isoform, sequence (P42336 whole entry, canonical isoform): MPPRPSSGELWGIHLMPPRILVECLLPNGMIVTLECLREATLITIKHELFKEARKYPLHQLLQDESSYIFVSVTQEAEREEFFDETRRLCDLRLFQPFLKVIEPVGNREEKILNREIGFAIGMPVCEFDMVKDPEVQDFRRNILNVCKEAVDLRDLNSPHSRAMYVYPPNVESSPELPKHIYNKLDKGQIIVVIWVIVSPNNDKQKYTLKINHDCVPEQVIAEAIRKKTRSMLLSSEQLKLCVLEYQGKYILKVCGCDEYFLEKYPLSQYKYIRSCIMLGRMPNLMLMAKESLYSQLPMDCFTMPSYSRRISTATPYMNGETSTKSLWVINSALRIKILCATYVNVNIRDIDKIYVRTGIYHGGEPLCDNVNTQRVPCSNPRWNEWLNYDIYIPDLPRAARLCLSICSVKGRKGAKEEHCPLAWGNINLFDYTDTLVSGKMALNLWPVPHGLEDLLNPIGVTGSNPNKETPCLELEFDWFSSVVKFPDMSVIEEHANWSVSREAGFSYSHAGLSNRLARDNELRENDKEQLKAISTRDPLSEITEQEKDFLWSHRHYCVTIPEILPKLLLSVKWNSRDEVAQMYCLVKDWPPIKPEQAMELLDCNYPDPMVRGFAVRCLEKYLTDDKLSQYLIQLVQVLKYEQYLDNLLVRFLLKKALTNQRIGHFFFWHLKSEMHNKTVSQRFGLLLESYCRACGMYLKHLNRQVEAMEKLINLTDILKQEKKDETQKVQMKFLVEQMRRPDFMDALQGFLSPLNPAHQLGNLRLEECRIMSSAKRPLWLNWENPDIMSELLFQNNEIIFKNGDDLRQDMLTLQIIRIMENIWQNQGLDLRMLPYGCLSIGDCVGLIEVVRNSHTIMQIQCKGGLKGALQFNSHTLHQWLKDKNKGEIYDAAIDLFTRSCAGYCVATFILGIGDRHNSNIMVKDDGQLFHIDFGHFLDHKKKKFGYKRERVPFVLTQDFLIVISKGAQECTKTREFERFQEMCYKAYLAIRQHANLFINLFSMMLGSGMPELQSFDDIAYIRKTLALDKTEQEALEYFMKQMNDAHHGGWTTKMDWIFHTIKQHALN

Histone deacetylase 4 = Histone deacetylase 4 (Homo sapiens, UniProt P56524); test: Inhibition of HDAC4 (unknown origin)
[9] = test system: Panel NCI-60 (60 carcinoma cell lines); test: Cytotoxicity against human Panel NCI-60 (60 carcinoma cell lines) cells assessed as cell growth inhibition; format: functional, cell-based
Histone deacetylase 2 [10] = target: T1, Histone deacetylase 2; test: Inhibition of HDAC2 (unknown origin)
Histone deacetylase 5 = Histone deacetylase 5 (Homo sapiens, UniProt Q9UQL6); test: Inhibition of HDAC5 (unknown origin)
Histone deacetylase 5, sequence (Q9UQL6 whole entry): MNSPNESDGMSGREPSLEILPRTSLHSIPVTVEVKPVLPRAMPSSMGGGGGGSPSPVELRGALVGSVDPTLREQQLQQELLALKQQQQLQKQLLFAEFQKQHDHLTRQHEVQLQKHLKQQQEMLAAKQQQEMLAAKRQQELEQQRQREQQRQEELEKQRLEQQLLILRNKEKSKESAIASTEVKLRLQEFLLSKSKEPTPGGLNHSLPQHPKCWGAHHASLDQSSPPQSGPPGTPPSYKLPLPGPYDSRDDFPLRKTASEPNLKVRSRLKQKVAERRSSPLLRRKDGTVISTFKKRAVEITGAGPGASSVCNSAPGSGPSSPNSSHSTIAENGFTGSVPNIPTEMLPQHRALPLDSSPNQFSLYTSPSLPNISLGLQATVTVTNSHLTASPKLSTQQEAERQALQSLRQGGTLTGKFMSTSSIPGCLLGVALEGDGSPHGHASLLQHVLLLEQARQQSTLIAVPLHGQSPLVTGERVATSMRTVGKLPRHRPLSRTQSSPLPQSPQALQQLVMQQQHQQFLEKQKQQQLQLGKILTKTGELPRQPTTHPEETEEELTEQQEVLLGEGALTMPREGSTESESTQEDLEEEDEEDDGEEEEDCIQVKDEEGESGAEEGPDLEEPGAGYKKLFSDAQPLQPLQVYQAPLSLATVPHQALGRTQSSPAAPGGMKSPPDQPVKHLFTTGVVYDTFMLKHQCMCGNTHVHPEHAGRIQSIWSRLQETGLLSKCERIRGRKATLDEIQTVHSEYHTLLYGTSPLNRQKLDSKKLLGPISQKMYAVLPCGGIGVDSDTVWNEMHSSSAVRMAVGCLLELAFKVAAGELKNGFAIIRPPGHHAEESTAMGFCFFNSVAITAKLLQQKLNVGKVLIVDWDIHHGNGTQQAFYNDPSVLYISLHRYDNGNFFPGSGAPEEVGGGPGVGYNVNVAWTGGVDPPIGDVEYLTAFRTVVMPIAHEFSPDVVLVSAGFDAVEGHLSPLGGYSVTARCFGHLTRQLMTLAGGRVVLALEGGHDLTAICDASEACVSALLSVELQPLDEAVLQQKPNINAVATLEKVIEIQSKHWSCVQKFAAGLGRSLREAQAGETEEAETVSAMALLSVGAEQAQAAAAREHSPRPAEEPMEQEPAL

Histone deacetylase 1 [11] = target: T3, Histone deacetylase 1; test: Inhibition of HDAC1 (unknown origin)
Histone deacetylase 3 [12] = target: T2, Histone deacetylase 3; test: Inhibition of HDAC3 (unknown origin)
Histone deacetylase 1 [13] = target: T3, Histone deacetylase 1; test: Inhibition of full-length recombinant human HDAC1 expressed in baculovirus infected Hi-5 insect cells using AcLys-Tyr-Lys(e-acetyl)-AMC as substrate incubated for 24 hrs by enzymatic assay
K562 = test: Antiproliferative activity against human K562 cells assessed as cell growth inhibition incubated for 48 hrs by MTT assay; format: functional, cell-based; conditions: K562, 48 h
DU-145 [14] = test: Antiproliferative activity against human DU-145 cells assessed as cell growth inhibition incubated for 48 hrs by MTT assay; format: functional, cell-based; conditions: DU-145, 48 h
HepG2 = test: Antiproliferative activity against human HepG2 cells assessed as cell growth inhibition incubated for 48 hrs by MTT assay; format: functional, cell-based; conditions: HepG2, 48 h
A549 [15] = test: Anti-proliferative activity against human A549 cells assessed as cell growth inhibition by MTT assay; format: functional, cell-based
[16] = target: Protein kinase C alpha type (Mus musculus, UniProt P20444); test: Binding affinity to mouse PKC-alpha assessed as inhibition constant
DU-145 [17] = test: Anti-proliferative activity against human DU-145 cells assessed as cell growth inhibition measured after 72 hrs by SRB assay; format: functional, cell-based; conditions: DU-145, 72 h
Histone deacetylase = test: Inhibition of pan-HDAC (unknown origin); format: protein assay, Homo sapiens

SMILES: COc1cc([C@@H]2c3cc4c(cc3C[C@H]3COC(=O)[C@@H]32)OCO4)cc(OC)c1OC(=O)CC(=O)NCc1ccc(C(=O)Nc2ccccc2N)cc1
- IC50 (HCT-116): 37 nM
- IC50 (A549 [1]): 36 nM
- IC50 (Histone deacetylase 2 [2]): 1730 nM
- IC50 (Histone deacetylase 3 [3]): 1000 nM
- IC50 (Histone deacetylase 1 [4]): 11100 nM

SMILES: Cn1c(CCCC(=O)O)nc2cc(N(CCCl)CCCl)ccc21 [BENDAMUSTINE]
- IC50 (Histone deacetylase 4): 10 nM
- IC50 [9]: 2200 nM
- IC50 [7]: 10 nM
- IC50 (Histone deacetylase 2 [10]): 10 nM
- IC50 (Histone deacetylase 5): 10 nM
- IC50 (Histone deacetylase 1 [11]): 10 nM
- IC50 (Histone deacetylase 3 [12]): 10 nM

SMILES: CC(=O)SCCCCCCCOc1ccc2c(c1)N(C)[C@H](C(C)C)C(=O)N[C@@H](CO)C2
- Ki [16]: 4.5 nM

SMILES: CCN1CCN(c2cc(Nc3ncc(C(=O)Nc4ccc(F)cc4N)s3)ncn2)CC1
- IC50 (Histone deacetylase 1 [13]): 810 nM
- IC50 (K562): 2260 nM
- IC50 (DU-145 [14]): 600 nM
- IC50 (HepG2): 10400 nM

SMILES: CC[C@@]1(O)C(=O)OCc2c1cc1n(c2=O)Cc2cc3ccccc3nc2-1 [CAMPTOTHECIN]
- IC50 (DU-145 [17]): 70 nM
- IC50 (Histone deacetylase): 50 nM

More lines, main results first:

- IC50 [6]: 6400 nM
- IC50 (Histone deacetylase 8): 2890 nM
SMILES: COc1ccc(CNC(=O)[C@H](CCC(=O)O)NC(=O)Cc2ccc(Br)cc2)cc1
- Activity (A549 [5]): 34%

- IC50 [6]: 19600 nM
- IC50 (Histone deacetylase 8): 3030 nM
SMILES: O=C(O)CC[C@H](NC(=O)Cc1ccc(Br)cc1)C(=O)NCc1ccccc1
- Activity (A549 [5]): 34%

- IC50 [7]: 34.6 nM
- IC50 [8]: 8.34 nM
SMILES: O=C(NO)c1ccc(/C=N/NC(=O)c2cc(N3CCOCC3)nc(-c3cccc4[nH]ncc34)n2)cc1

- IC50 (Histone deacetylase 1 [13]): 150 nM
- IC50 (K562): 2560 nM
- IC50 (DU-145 [14]): 5790 nM
- IC50 (HepG2): 16500 nM
SMILES: CCN1CCN(c2cc(Nc3ncc(C(=O)Nc4ccccc4N)s3)ncn2)CC1

- IC50 (A549 [15]): 720 nM
SMILES: O=C(CCCCCOc1ccc(-c2nc3ccccc3c3cc(-c4ccccc4)nn23)cc1)NO

- IC50 (Histone deacetylase 2 [2]): 750 nM
- IC50 (Histone deacetylase 3 [3]): 5300 nM
- IC50 (Histone deacetylase 1 [4]): 11000 nM
SMILES: COc1cc([C@@H]2c3cc4c(cc3C[C@H]3COC(=O)[C@@H]32)OCO4)cc(OC)c1OC(=O)CC(=O)Nc1ccc(C(=O)Nc2ccccc2N)cc1
- IC50 (HCT-116): 40 nM
- IC50 (A549 [1]): 37 nM

From ChEMBL document CHEMBL5113372, “Paradigm shift of "classical" HDAC inhibitors to "hybrid" HDAC inhibitors in therapeutic interventions” (Eur J Med Chem, 2021)
